Reference: patent EP1066315B1 (University of Dundee, priority 1998, dated 2008)
Residues, ends and D or L forms follow the SMILES beside them. *: point of attachment. Fmoc = O=C(OCC1c2ccccc2-c2ccccc21)*; Cbz = O=C(OCc1ccccc1)*; CHN2 = [N-]=[N+]=C*

How the values were obtained:
[1] = test system: purified AEP (legumain from pig kidney); test: Digestion of TTCF with purified AEP in the presence of tetrapeptides; format: biochemical; details: 0.2 mg/ml peptide; Fig 3a
Protocol: The invention will now be described by reference to the following Examples and Figures wherein • Figure 1: Processing of TTCF by a leupeptin-insensitive cysteine endopeptidase activity. (a) TTCF was digested in vitro in the presence of disrupted lysosomes (1-2 µg) in the presence or absence of iodoacetamide (1 mM), leupeptin, E64 or pepstatin (each at 0.1 mg/ml). Digestions were in 0.1 M NH4 acetate at pH 4.5 or Na2HPO4, pH 6.0 or 7.0. After 4 hours at 37°C, the reactions were separated by Tris-tricine SDS-PAGE and stained with Coomassie Blue. (b) Cleavage sites: TTCF digestion products were separated by SDS PAGE and electrophoretically transferred to nitrocellulose membrane. Individual fragments numbered 1-6 were subjected to 5 cycles of Edman degradation. N-terminal sequence obtained is shown in bold following upstream residues from TTCF (tetanus toxin numbering). The N-terminal sequence of His-tagged TTCF was obtained for fragments 1 and 3. (c) Residues Asn 1184 and Glu 1184 in TTCF were mutated to alanine (see Methods) and digestions performed as before. The mutation abolishes cleavage at the mutated site but not at the first site (doublet at 47 kD). In this experiment cleavage of the third site was minimal. • Figure 2: TTCF is processed by an asparaginyl endopeptidase. (a) Chromatography of the TTCF processing activity on Mono-S resin. Fractions eluted by NaCl gradient were incubated with the substrates Z-Ala-Ala-Asn-NHMec or Z-Phe-Arg-NHMec in the presence or absence of E64 (trans-epoxysuccinyl-L-leucylamido-(4-guanidino)butane). […] (b) Fractions as above were incubated with 10 µg TTCF in the presence or absence of E64 for 4 hours at 37°C prior to SDS-PAGE analysis. (c) Each fraction was analysed by SDS-PAGE and Western blotting. Electrophoretically transferred material was probed with an affinity purified antiserum raised against the peptide KGIGSGKVLKSGPQC from human legumain^1. • Figure 3: Peptide inhibitors of AEP block asparaginyl endopeptidase activity and TTCF processing in vitro and in vivo. […] Release of 7-amino-4-methyl coumarin was measured after 10, 20 or 30 minutes. […] At different times the cells were washed, fixed in 0.05 % glutaraldehyde and antigen presentation measured using proliferation of different autologous TTCF-specific T cell clones. c, AEP pre-processing of TTCF speeds antigen presentation. […] Presentation was measured after 60 minutes of antigen pulsing using EBV B cells.
We decided to test the possibility that high concentrations of asparagine containing peptides might act as competitive inhibitors. […] To establish that inhibition of AEP was specific, we measured the hydrolysis of different synthetic peptide substrates in the presence and absence of these tetrapeptides.

[2] = biological target: T1, disrupted lysosomes isolated from the human B cell line EDR (TTCF processing activity) (Homo sapiens, UniProt Q99538); test: Digestion of TTCF by disrupted B cell lysosomes, SDS-PAGE readout; format: biochemical; details: data not shown; for effect on lysosomal TTCF digestion activity: concentration not given
T1 construct: disrupted lysosomes isolated from the human B cell line EDR; endogenous in cells; host or cells: human B cell line EDR, Percoll-gradient lysosomal fraction, disrupted
T1 sequence (Q99538 26-323 limits assumed): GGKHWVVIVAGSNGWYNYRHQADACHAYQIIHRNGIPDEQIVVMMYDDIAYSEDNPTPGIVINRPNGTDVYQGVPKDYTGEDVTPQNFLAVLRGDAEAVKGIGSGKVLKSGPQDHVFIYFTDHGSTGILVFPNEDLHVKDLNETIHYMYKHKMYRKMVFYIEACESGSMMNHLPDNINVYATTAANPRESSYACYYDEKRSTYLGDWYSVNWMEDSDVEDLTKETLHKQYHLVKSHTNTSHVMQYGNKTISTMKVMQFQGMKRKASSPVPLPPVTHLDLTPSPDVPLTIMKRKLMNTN
Protocol: The invention will now be described by reference to the following Examples and Figures wherein • Figure 1: Processing of TTCF by a leupeptin-insensitive cysteine endopeptidase activity. (a) TTCF was digested in vitro in the presence of disrupted lysosomes (1-2 µg) in the presence or absence of iodoacetamide (1 mM), leupeptin, E64 or pepstatin (each at 0.1 mg/ml). Digestions were in 0.1 M NH4 acetate at pH 4.5 or Na2HPO4, pH 6.0 or 7.0. After 4 hours at 37°C, the reactions were separated by Tris-tricine SDS-PAGE and stained with Coomassie Blue. (b) Cleavage sites: TTCF digestion products were separated by SDS PAGE and electrophoretically transferred to nitrocellulose membrane. Individual fragments numbered 1-6 were subjected to 5 cycles of Edman degradation. N-terminal sequence obtained is shown in bold following upstream residues from TTCF (tetanus toxin numbering). The N-terminal sequence of His-tagged TTCF was obtained for fragments 1 and 3. (c) Residues Asn 1184 and Glu 1184 in TTCF were mutated to alanine (see Methods) and digestions performed as before. The mutation abolishes cleavage at the mutated site but not at the first site (doublet at 47 kD). In this experiment cleavage of the third site was minimal. • Figure 2: TTCF is processed by an asparaginyl endopeptidase. (a) Chromatography of the TTCF processing activity on Mono-S resin. Fractions eluted by NaCl gradient were incubated with the substrates Z-Ala-Ala-Asn-NHMec or Z-Phe-Arg-NHMec in the presence or absence of E64 (trans-epoxysuccinyl-L-leucylamido-(4-guanidino)butane). […] (b) Fractions as above were incubated with 10 µg TTCF in the presence or absence of E64 for 4 hours at 37°C prior to SDS-PAGE analysis. (c) Each fraction was analysed by SDS-PAGE and Western blotting. Electrophoretically transferred material was probed with an affinity purified antiserum raised against the peptide KGIGSGKVLKSGPQC from human legumain^1. • Figure 3: Peptide inhibitors of AEP block asparaginyl endopeptidase activity and TTCF processing in vitro and in vivo. (a) TTCF was digested with purified AEP (legumain from pig kidney) in the presence or absence of 0.2 mg/ml of the peptides indicated. […] (b) Purified AEP or a crude lysosomal protease mixture were incubated with Z-Ala-Ala-Asn-NHMec, Z-Phe-Arg-NHMec (cathepsins L&B) or Z-Val-Val-Ala NHMec (cathepsin S) in the presence of increasing concentrations of AENK or AEQK. Release of 7-amino-4-methyl coumarin was measured after 10, 20 or 30 minutes. […] At different times the cells were washed, fixed in 0.05 % glutaraldehyde and co-cultured with autologous TTCF specific T cell clones. […] Proteins obtained from commercial sources, as described in the literature or custom peptides were digested with purified pig kidney legumain at pH 5.5 in the presence of 1 mM DTT. […] When present peptide was maintained during antigen pulsing at 1 mg/ml (a) or 2 mg/ml (b). At different times the cells were washed, fixed in 0.05 % glutaraldehyde and antigen presentation measured using proliferation of different autologous TTCF-specific T cell clones. c, AEP pre-processing of TTCF speeds antigen presentation. […] Presentation was measured after 60 minutes of antigen pulsing using EBV B cells.
[…]. […] Nor could we reproduce the lysosomal TTCF digestion pattern or indeed generate any of these fragments using purified cathepsins L, S, B, D or E , all of which have been implicated in the class II MHC antigen processing pathway (reviewed in refs 5 & 6).
TTCF processing activity. Lysosomal fractions from the human B cell line EDR were prepared on 27 % Percoll density gradients as previously described^8 using ^125I-labelled transferrin (internalised for 30 minutes at 37°C) and β-hexosaminidase to identify endosomal/plasma membrane and lysosomal fractions respectively. The peak of lysosomes was collected by centrifugation at 40,000 g for 1 hour, removed from the underlying Percoll pellet, collected again at 50,000 g for 1 hour and stored frozen. […]

SMILES	effect on lysosomal TTCF digestion activity [2]	further results
NCCCC[C@H](NC(=O)OCC1c2ccccc2-c2ccccc21)C(=O)N[C@@H](CCC(N)=O)C(=O)N[C@@H](CCC(N)=O)C(=O)N[C@@H](CCC(=O)O)C(N)=O [KQQE] (Fmoc-KQQE-NH2)	–	inhibition of processing of TTCF by AEP [1]: did not inhibit
CC(C)C[C@H](NC(=O)N1CCOCC1)C(=O)N[C@H](/C=C/S(=O)(=O)c1ccccc1)CCc1ccccc1 [LHVS]	without effect	–
CCN1C(=O)C=CC1=O [N-ethyl maleimide]	sensitive	–
[N-]=[N+]=CC(=O)[C@H](Cc1ccccc1)NC(=O)[C@H](Cc1ccccc1)NC(=O)OCc1ccccc1 [Z-Phe-Phe-CHN2] (Cbz-Phe-Phe-CHN2)	–	sensitivity of lysosomal TTCF digestion activity to inhibitor ([2]; high concentrations): sensitive
